PubChem BioAssay AID602458 (NMMLSC, 2012)
Values after ≈ are worked out from the molar mass of the structure shown. Active and inactive are the calls of the source.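 The calls were made as follows: active = compounds whose saturated solubility in pH 7.4 saline buffer exceeds 10 µg/mL; inactive = the rest.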

Tested on: 1xPBS pH 7.4 kinetic solubility, UV absorbance
Test: compound solubility in PBS buffer – biophysical, 1xPBS, pH 7.4, UV absorbance, ADME assay for GPR30 and estrogen receptor ligands, late-stage follow-up (AID 602458)
Conditions: stronger effect = higher value

Row | SMILES | solubility
1 | COc1cc([N+](=O)[O-])cc2c1NC(C1CC=CCC1)C1CC=CC21 (configuration not stated) | 0.28 µg/mL (inactive) (≈ 0.858 µM)
2 | CC(=O)c1ccc2c(c1)[C@@H]1C=CC[C@@H]1[C@H](c1cc3c(cc1Br)OCO3)N2 | 0.14 µg/mL (inactive) (≈ 0.34 µM)
